For one assay, the target named is T1, A. mellifera CYP9Q3 (Apis mellifera, UniProt A0A7M7LMV1).
T1 construct: gene LOC408453; recombinant, baculovirus, High-5 (Trichoplusia ni) cell microsomes; coexpressed with A. mellifera CPR (XP_006569769.1)
T1 sequence (A0A7M7LMV1 1-517): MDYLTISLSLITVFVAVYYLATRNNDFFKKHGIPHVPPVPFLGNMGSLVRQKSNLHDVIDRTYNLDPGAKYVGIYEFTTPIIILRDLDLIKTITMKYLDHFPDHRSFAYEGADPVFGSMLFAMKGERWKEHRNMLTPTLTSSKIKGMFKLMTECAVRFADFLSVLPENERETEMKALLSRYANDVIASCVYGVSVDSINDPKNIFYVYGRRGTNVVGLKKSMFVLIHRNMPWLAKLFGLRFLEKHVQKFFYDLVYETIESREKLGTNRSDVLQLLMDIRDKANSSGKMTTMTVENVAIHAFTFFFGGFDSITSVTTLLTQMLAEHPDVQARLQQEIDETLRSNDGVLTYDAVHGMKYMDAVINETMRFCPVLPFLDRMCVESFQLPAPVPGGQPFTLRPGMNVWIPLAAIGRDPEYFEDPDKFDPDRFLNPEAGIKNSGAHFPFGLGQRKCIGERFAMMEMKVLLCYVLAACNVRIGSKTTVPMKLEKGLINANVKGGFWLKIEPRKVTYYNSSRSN
Kind of assay: UPLC-MS/MS depletion and metabolite formation assay. The assay is classed as biochemical. The settings on record: 10 µM substrate; NADPH regeneration system; 2 h, 30 °C; recombinant microsomes.

For assay [1], the system named is T2, Melitta hemorrhoidalis CYP9FU3.
T2 construct: recombinant, baculovirus, High-5 (Trichoplusia ni) cell microsomes; coexpressed with A. mellifera CPR (XP_006569769.1)
Kind of assay: fluorescent probe saturation kinetics, Michaelis-Menten. Also on record: species or system Melitta haemorrhoidalis. Particulars: NADPH; recombinant microsomes.

Assay [2] relates to T3, Xylocopa violacea CYP9Q18.
T3 construct: recombinant, baculovirus, High-5 (Trichoplusia ni) cell microsomes; coexpressed with A. mellifera CPR (XP_006569769.1)
The assay is described as above. Type of assay: biochemical. Particulars: NADPH; recombinant microsomes.

A further assay deals with T4, Andrena vaga CYP9FT2.
T4 construct: recombinant, baculovirus, High-5 (Trichoplusia ni) cell microsomes; coexpressed with A. mellifera CPR (XP_006569769.1)
The description is as above. The settings on record: NADPH; recombinant microsomes. Type of assay: biochemical.

Assay [3] concerns T5, Colletes cunicularius CYP9FZ2.
T5 construct: recombinant, baculovirus, High-5 (Trichoplusia ni) cell microsomes; coexpressed with A. mellifera CPR (XP_006569769.1)
The description is as above. Type of assay: biochemical. Particulars: NADPH; recombinant microsomes.

Each structure is given as a SMILES string.

Data on two compounds can be found in publication PMC9245717, “Phylogenomic and functional characterization of an evolutionary conserved cytochrome P450-based insecticide detoxification mechanism in bees” (Proceedings of the National Academy of Sciences of the …, 2022).

Take `O=C1C=C(N(Cc2ccc(Cl)nc2)CC(F)F)CO1` [flupyradifurone]: the “UPLC-MS/MS depletion and metabolite formation assay” value at A. mellifera CYP9Q3 was “FPF metabolite formation was remarkably uniform among all the P450s tested”.

What is called Km is the concentration of substrate that gives half-maximal velocity. Turning to `O=c1cc(C(F)(F)F)c2ccc(OCOCc3ccccc3)cc2o1` [BOMFC, 7-benzyloxymethoxy-4-trifluoromethyl coumarin], the Km came to 8.16 µM in assay [1], 15.2 µM in assay [2], 7.43 µM with Andrena vaga CYP9FT2 and 14.7 µM in assay [3].
